Test results as given in patent publication US20260167632A1, “NICOTINAMIDE DERIVATIVES FOR USE IN TREATING DISORDERS ASSOCIATED WITH KCNK13 ACTIVITY” (Cerevance, Inc., priority 2022, published 2026).

The compounds below were run against T1, human KCNK13 (Homo sapiens, UniProt Q9HB14) (assay: KCNK13 antagonist activity, thallium flux FLIPR assay in HEK 293 cells stably expressing human KCNK13). Conditions: HEK 293 cells stably expressing human KCNK13, Tl+ sensitive dye, compound 15 min before thallium sulfate, ten point curves; read-out: hKCNK13 IC50.
T1 construct: expressed in transfected cells
T1 sequence (Q9HB14 1-408): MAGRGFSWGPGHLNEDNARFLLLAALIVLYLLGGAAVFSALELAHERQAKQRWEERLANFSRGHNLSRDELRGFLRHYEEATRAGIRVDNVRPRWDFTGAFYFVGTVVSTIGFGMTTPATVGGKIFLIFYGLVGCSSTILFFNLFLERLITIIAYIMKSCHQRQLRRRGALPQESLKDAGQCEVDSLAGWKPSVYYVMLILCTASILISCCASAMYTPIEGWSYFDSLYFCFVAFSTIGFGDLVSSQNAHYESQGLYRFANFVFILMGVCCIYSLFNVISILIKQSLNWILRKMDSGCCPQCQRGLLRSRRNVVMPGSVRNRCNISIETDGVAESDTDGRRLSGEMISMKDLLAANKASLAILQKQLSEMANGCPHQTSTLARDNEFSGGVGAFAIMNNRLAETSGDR
Type: cell-based
Protocol: 4. Biological Efficacy of Compounds of the Invention
KCNK13 antagonist activity was determined by measuring changes in intracellular Thallium (Tl^+) concentrations using a Tl^+ sensitive fluorescent dye. The changes in fluorescent signal were monitored by Fluorescent Imaging Plate Reader (FLIPR™) technology available from Molecular Devices, LLC, US. KCNK13 mediated increases in intracellular Tl^+ concentration were readily detected by addition of a thallium sulfate Stimulus. 24 hours prior to the assay, human embryonic kidney 293 cells (HEK 293 cells) stably expressing human KCNK13 were seeded in cell culture medium in PDL coated black, clear-bottom 384-well plates (commercially available from Corning Inc., 356663) and grown overnight at 37° C., […]. On the day of the assay, cell culture media was removed and cells were loaded with potassium dye (commercially sold by Molecular Devices, LLC, US, R8222) for 1 hour at room temperature in the dark. Test compounds (at 10 point half log concentration response curves from 100 µM) were added to cells for 15 minutes prior to the addition of thallium sulfate to all wells. The IC50 values were determined from ten point concentration response curves. Curves were generated using the average of two wells for each data point.

| SMILES | IC50 |
| --- | --- |
| COc1ncc(F)cc1C(=O)N(C)C1CCc2ccc(F)cc21 (single isomer, unassigned) [Example 9, 5-fluoro-N-(6-fluoro-2,3-dihydro-1H-inden-1-yl)-2-methoxy-N-methylnicotinamide] | ≤ 1 µM |
| CCOc1ncc(Cl)cc1C(=O)N(C)C1CCc2ccccc21 (single isomer, unassigned) [Example 12, 5-chloro-N-(2,3-dihydro-1H-inden-1-yl)-2-ethoxy-N-methylnicotinamide] | ≤ 1 µM |
| COc1ncc(Cl)cc1C(=O)N(C)C1COc2ccccc21 (single isomer, unassigned) [Example 25, 5-chloro-N-(2,3-dihydrobenzofuran-3-yl)-2-methoxy-N-methylnicotinamide] | ≤ 0.5 µM |
| COc1ncc(Cl)cc1C(=O)N(C)C1COc2ccccc21 (single isomer, unassigned) [Example 26, 5-chloro-N-(2,3-dihydrobenzofuran-3-yl)-2-methoxy-N-methylnicotinamide] | ≤ 0.5 µM |
| COc1ncc(Cl)cc1C(=O)N(C)C1COc2ccccc21 (single isomer, unassigned) [Example 27, 5-chloro-N-(2,3-dihydrobenzofuran-3-yl)-2-methoxy-N-methylnicotinamide] | ≤ 0.5 µM |
| COc1ncc(Cl)cc1C(=O)N(C)C1CCOc2c(F)cccc21 (single isomer, unassigned) [Example 28, 5-chloro-N-(8-fluorochroman-4-yl)-2-methoxy-N-methylnicotinamide] | ≤ 0.5 µM |
| COc1ncc(Cl)cc1C(=O)N(C)C1CCOc2c(F)cccc21 (single isomer, unassigned) [Example 29, 5-chloro-N-(8-fluorochroman-4-yl)-2-methoxy-N-methylnicotinamide] | ≤ 0.5 µM |
| COc1ncc(F)cc1C(=O)N(C)C1CCOc2c(F)cccc21 (single isomer, unassigned) [Example 30, 5-fluoro-N-(8-fluorochroman-4-yl)-2-methoxy-N-methylnicotinamide] | ≤ 0.5 µM |
| COc1ncc(F)cc1C(=O)N(C)C1CCOc2c(F)cccc21 (single isomer, unassigned) [Example 31, 5-fluoro-N-(8-fluorochroman-4-yl)-2-methoxy-N-methylnicotinamide] | ≤ 1 µM |
| COc1ncc(Cl)cc1C(=O)N(C)C1COc2cc(F)ccc21 (single isomer, unassigned) [Example 45, 5-chloro-N-(6-fluoro-2,3-dihydrobenzofuran-3-yl)-2-methoxy-N-methylnicotinamide] | ≤ 5 µM |
| COc1ncc(Cl)cc1C(=O)N(C)C1COc2cc(F)ccc21 (single isomer, unassigned) [Example 46, 5-chloro-N-(6-fluoro-2,3-dihydrobenzofuran-3-yl)-2-methoxy-N-methylnicotinamide] | ≤ 1 µM |
| COc1ncc(Cl)cc1C(=O)N(C)C(C)c1cc(F)ccc1C#N (single isomer, unassigned) [Example 59, 5-chloro-N-(1-(2-cyano-5-fluorophenyl)ethyl)-2-methoxy-N-methylnicotinamide] | ≤ 0.5 µM |
| COc1ncc(Cl)cc1C(=O)N(C)C(C)c1cc(F)ccc1C#N (single isomer, unassigned) [Example 60, 5-chloro-N-(1-(2-cyano-5-fluorophenyl)ethyl)-2-methoxy-N-methylnicotinamide] | ≤ 5 µM |
| COc1ncc(F)cc1C(=O)N(C)C(C)c1cc(F)ccc1C#N (single isomer, unassigned) [Example 62, N-(1-(2-cyano-5-fluorophenyl)ethyl)-5-fluoro-2-methoxy-N-methylnicotinamide] | ≤ 1 µM |
| COc1ncc(F)cc1C(=O)N(C)C(C)c1cc(F)ccc1C#N (single isomer, unassigned) [Example 63, N-(1-(2-cyano-5-fluorophenyl)ethyl)-5-fluoro-2-methoxy-N-methylnicotinamide] | ≤ 1 µM |
| COc1ncc(F)cc1C(=O)N(C)C(C)c1ccc(F)cc1C#N (single isomer, unassigned) [Example 64, N-(1-(2-cyano-4-fluorophenyl)ethyl)-5-fluoro-2-methoxy-N-methylnicotinamide] | ≤ 5 µM |
| COc1ncc(F)cc1C(=O)N(C)C(C)c1ccc(F)cc1C#N (single isomer, unassigned) [Example 65, N-(1-(2-cyano-4-fluorophenyl)ethyl)-5-fluoro-2-methoxy-N-methylnicotinamide] | ≤ 1 µM |
| COc1ncc(Cl)cc1C(=O)N(C)C(C)c1ccc(F)cc1C#N (single isomer, unassigned) [Example 66, 5-chloro-N-(1-(2-cyano-4-fluorophenyl)ethyl)-2-methoxy-N-methylnicotinamide] | ≤ 5 µM |
| COc1ncc(Cl)cc1C(=O)N(C)C(C)c1ccc(F)cc1C#N (single isomer, unassigned) [Example 67, 5-chloro-N-(1-(2-cyano-4-fluorophenyl)ethyl)-2-methoxy-N-methylnicotinamide] | ≤ 0.5 µM |
| COc1ncc(F)cc1C(=O)N(C)C(C)c1ccc(F)cc1F (single isomer, unassigned) [Example 68, N-(1-(2,4-difluorophenyl)ethyl)-5-fluoro-2-methoxy-N-methylnicotinamide] | ≤ 5 µM |

Further lines, results first:

| IC50 | SMILES |
| --- | --- |
| ≤ 0.5 µM | COc1ncc(F)cc1C(=O)N(C)C(C)c1ccccc1F (single isomer, unassigned) [Example 5, 5-fluoro-N-(1-(2-fluorophenyl)ethyl)-2-methoxy-N-methylnicotinamide] |
| ≤ 0.5 µM | COc1ncc(F)cc1C(=O)N(C)C(C)c1ccccc1F (single isomer, unassigned) [Example 6, 5-fluoro-N-(1-(2-fluorophenyl)ethyl)-2-methoxy-N-methylnicotinamide] |
| ≤ 0.2 µM | COc1ncc(F)cc1C(=O)N(C)C(C)c1cccc(F)c1 (single isomer, unassigned) [Example 7, 5-fluoro-N-(1-(3-fluorophenyl)ethyl)-2-methoxy-N-methylnicotinamide] |
| ≤ 0.2 µM | COc1ncc(F)cc1C(=O)N(C)C(C)c1cccc(F)c1 (single isomer, unassigned) [Example 8, 5-fluoro-N-(1-(3-fluorophenyl)ethyl)-2-methoxy-N-methylnicotinamide] |
| ≤ 0.5 µM | COc1ncc(F)cc1C(=O)N(C)C1CCc2ccc(F)cc21 (single isomer, unassigned) [Example 10, 5-fluoro-N-(6-fluoro-2,3-dihydro-1H-inden-1-yl)-2-methoxy-N-methylnicotinamide] |
| ≤ 0.5 µM | CCOc1ncc(Cl)cc1C(=O)N(C)C1CCc2ccccc21 (single isomer, unassigned) [Example 13, 5-chloro-N-(2,3-dihydro-1H-inden-1-yl)-2-ethoxy-N-methylnicotinamide] |
| ≤ 0.5 µM | COc1ncc(F)cc1C(=O)N(C)C1CCOc2ccccc21 (single isomer, unassigned) [Example 14, N-(chroman-4-yl)-5-fluoro-2-methoxy-N-methylnicotinamide] |
| ≤ 0.5 µM | COc1ncc(F)cc1C(=O)N(C)C1CCOc2ccccc21 (single isomer, unassigned) [Example 15, N-(chroman-4-yl)-5-fluoro-2-methoxy-N-methylnicotinamide] |
| ≤ 0.5 µM | COc1ncc(F)cc1C(=O)N(C)C1CCc2ccccc21 (single isomer, unassigned) [Example 17, N-(2,3-dihydro-1H-inden-1-yl)-5-fluoro-2-methoxy-N-methylnicotinamide] |
| ≤ 0.5 µM | COc1ncc(Cl)cc1C(=O)N(C)C1CCOc2ccccc21 (single isomer, unassigned) [Example 18, 5-chloro-N-(chroman-4-yl)-2-methoxy-N-methylnicotinamide] |
| ≤ 0.5 µM | COc1ncc(Cl)cc1C(=O)N(C)C1CCOc2ccccc21 (single isomer, unassigned) [Example 19, 5-chloro-N-(chroman-4-yl)-2-methoxy-N-methylnicotinamide] |
| ≤ 0.5 µM | COc1ncc(Cl)cc1C(=O)N(C)C1CCc2ccc(F)cc21 (single isomer, unassigned) [Example 20, 5-chloro-N-(6-fluoro-2,3-dihydro-1H-inden-1-yl)-2-methoxy-N-methylnicotinamide] |
| ≤ 0.2 µM | COc1ncc(Cl)cc1C(=O)N(C)C1CCc2ccc(F)cc21 (single isomer, unassigned) [Example 21, 5-chloro-N-(6-fluoro-2,3-dihydro-1H-inden-1-yl)-2-methoxy-N-methylnicotinamide] |
| ≤ 0.5 µM | COc1ncc(Cl)cc1C(=O)N(C)C1CCc2ccccc21 (single isomer, unassigned) [Example 22, 5-chloro-N-(2,3-dihydro-1H-inden-1-yl)-2-methoxy-N-methylnicotinamide] |
| ≤ 0.5 µM | COc1ncc(Cl)cc1C(=O)N(C)C1CCc2ccccc21 (single isomer, unassigned) [Example 23, 5-chloro-N-(2,3-dihydro-1H-inden-1-yl)-2-methoxy-N-methylnicotinamide] |
